Laboratory results taken from ChEMBL document CHEMBL3885861, “Open TG-GATES”.

Organism: Rattus norvegicus
Test: Open TG-GATES - Regimen: Single
Assay type: toxicity, organism-based, Sprague-Dawley
Design: regimen Single, gender Male, age 6 weeks
Conditions: in vivo, po, route gavage; for APTT / Bas / Eos / Fbg / Hb / Ht / Lym / MCH / MCHC / MCV / Mono / Neu / PT / Plat / RBC / Ret / WBC: tissue Blood; for KIDNEY_L / KIDNEY_R / KIDNEY_TOTAL: tissue Kidney; for LIVER: tissue Liver; for A/G / ALP / ALT / AST / BUN / CRE / Ca / Cl / DBIL / GLC / IP / K / LDH / Na / PL / RALB / TBIL / TC / TG / TP / gamma-GTP: tissue Plasma
[1] = 120 mg/kg, 3 h, dose level Middle
[2] = 120 mg/kg, 6 h, dose level Middle
[3] = 120 mg/kg, 9 h, dose level Middle
[4] = 120 mg/kg, 24 h, dose level Middle
[5] = 400 mg/kg, 3 h, dose level High
[6] = 400 mg/kg, 6 h, dose level High
[7] = 400 mg/kg, 9 h, dose level High
[8] = 400 mg/kg, 24 h, dose level High

Cc1cccc(C)c1OCC(C)N (centres undefined) [MEXILETINE]
TERMINAL_BW [1]: 218.1 g
APTT [1]: 21.8 s
Bas [1]: 0%
Eos [1]: 0.4%
Fbg [1]: 310.2 mg/dL
Hb [1]: 13.1 g/dL
Ht [1]: 40.6%
Lym [1]: 83.2%
MCH [1]: 20.1 pg
MCHC [1]: 32.2%
MCV [1]: 62.6 fL
Mono [1]: 2%
Neu [1]: 13.6%
PT [1]: 15.9 s
Plat [1]: 113.4 x10_4/uL
RBC [1]: 648.8 x10_4/ul
Ret [1]: 7.3%
WBC [1]: 96 x10_2/uL
KIDNEY_L [1]: 1 g
KIDNEY_R [1]: 1 g
KIDNEY_TOTAL [1]: 1.9 g
LIVER [1]: 10.1 g
A/G [1]: 1.3
ALP [1]: 1543.6 IU/L
ALT [1]: 54.4 IU/L
AST [1]: 78.4 IU/L
BUN [1]: 12.8 mg/dL
CRE [1]: 0.2 mg/dL
Ca [1]: 10.5 mg/dL
Cl [1]: 106.4 meq/L
DBIL [1]: 0 mg/dL
GLC [1]: 182.6 mg/dL
IP [1]: 9.4 mg/dL
K [1]: 4.4 meq/L
LDH [1]: 175.2 IU/L
Na [1]: 141.6 meq/L
PL [1]: 135 mg/dL
RALB [1]: 3.1 g/dL
TBIL [1]: 0.018 mg/dL
TC [1]: 77.2 mg/dL
TG [1]: 61.8 mg/dL
TP [1]: 5.5 g/dL
gamma-GTP [1]: 1.2 IU/L
TERMINAL_BW [2]: 209 g
APTT [2]: 21.2 s
Bas [2]: 0%
Eos [2]: 0.8%
Fbg [2]: 318.6 mg/dL
Hb [2]: 13.2 g/dL
Ht [2]: 40.5%
Lym [2]: 77.4%
MCH [2]: 20.4 pg
MCHC [2]: 32.6%
MCV [2]: 62.6 fL
Mono [2]: 2.4%
Neu [2]: 19%
PT [2]: 16.1 s
Plat [2]: 120.4 x10_4/uL
RBC [2]: 647 x10_4/ul
Ret [2]: 6.8%
WBC [2]: 69.3 x10_2/uL
KIDNEY_L [2]: 0.9 g
KIDNEY_R [2]: 0.9 g
KIDNEY_TOTAL [2]: 1.9 g
LIVER [2]: 9 g
A/G [2]: 1.2
ALP [2]: 1633.4 IU/L
ALT [2]: 43.8 IU/L
AST [2]: 73.4 IU/L
BUN [2]: 9.8 mg/dL
CRE [2]: 0.2 mg/dL
Ca [2]: 10.6 mg/dL
Cl [2]: 107.4 meq/L
DBIL [2]: 0 mg/dL
GLC [2]: 184.6 mg/dL
IP [2]: 8.6 mg/dL
K [2]: 4.1 meq/L
LDH [2]: 179.2 IU/L
Na [2]: 142 meq/L
PL [2]: 124.6 mg/dL
RALB [2]: 3.1 g/dL
TBIL [2]: 0.03 mg/dL
TC [2]: 68.6 mg/dL
TG [2]: 48.6 mg/dL
TP [2]: 5.7 g/dL
gamma-GTP [2]: 1.2 IU/L
TERMINAL_BW [3]: 219.2 g
APTT [3]: 22.9 s
Bas [3]: 0%
Eos [3]: 1%
Fbg [3]: 318.6 mg/dL
Hb [3]: 12.6 g/dL
Ht [3]: 39%
Lym [3]: 78.6%
MCH [3]: 20.2 pg
MCHC [3]: 32.3%
MCV [3]: 62.6 fL
Mono [3]: 2.4%
Neu [3]: 17.2%
PT [3]: 16.3 s
Plat [3]: 120 x10_4/uL
RBC [3]: 624 x10_4/ul
Ret [3]: 7.2%
WBC [3]: 97.2 x10_2/uL
KIDNEY_L [3]: 1 g
KIDNEY_R [3]: 1 g
KIDNEY_TOTAL [3]: 2 g
LIVER [3]: 9.5 g
A/G [3]: 1.2
ALP [3]: 1531 IU/L
ALT [3]: 44.6 IU/L
AST [3]: 71.8 IU/L
BUN [3]: 10.6 mg/dL
CRE [3]: 0.2 mg/dL
Ca [3]: 10.6 mg/dL
Cl [3]: 104.6 meq/L
DBIL [3]: 0 mg/dL
GLC [3]: 188.4 mg/dL
IP [3]: 9 mg/dL
K [3]: 4.3 meq/L
LDH [3]: 143.8 IU/L
Na [3]: 140.2 meq/L
PL [3]: 130.4 mg/dL
RALB [3]: 3 g/dL
TBIL [3]: 0.02 mg/dL
TC [3]: 74 mg/dL
TG [3]: 66.8 mg/dL
TP [3]: 5.4 g/dL
gamma-GTP [3]: 1.2 IU/L
TERMINAL_BW [4]: 231.4 g
APTT [4]: 19.9 s
Bas [4]: 0%
Eos [4]: 0.8%
Fbg [4]: 293.8 mg/dL
Hb [4]: 12.8 g/dL
Ht [4]: 39.5%
Lym [4]: 81%
MCH [4]: 20.6 pg
MCHC [4]: 32.3%
MCV [4]: 63.8 fL
Mono [4]: 2.4%
Neu [4]: 15.2%
PT [4]: 15.9 s
Plat [4]: 117.4 x10_4/uL
RBC [4]: 619.8 x10_4/ul
Ret [4]: 7.6%
WBC [4]: 86.1 x10_2/uL
KIDNEY_L [4]: 1 g
KIDNEY_R [4]: 1 g
KIDNEY_TOTAL [4]: 2 g
LIVER [4]: 10.8 g
A/G [4]: 1.3
ALP [4]: 1779.4 IU/L
ALT [4]: 50 IU/L
AST [4]: 75 IU/L
BUN [4]: 17.2 mg/dL
CRE [4]: 0.2 mg/dL
Ca [4]: 10.7 mg/dL
Cl [4]: 106.2 meq/L
DBIL [4]: 0 mg/dL
GLC [4]: 188.6 mg/dL
IP [4]: 7.6 mg/dL
K [4]: 4.2 meq/L
LDH [4]: 205 IU/L
Na [4]: 141.4 meq/L
PL [4]: 148.4 mg/dL
RALB [4]: 3.1 g/dL
TBIL [4]: 0.008 mg/dL
TC [4]: 74.2 mg/dL
TG [4]: 150.8 mg/dL
TP [4]: 5.6 g/dL
gamma-GTP [4]: 1.6 IU/L
TERMINAL_BW [5]: 221.2 g
APTT [5]: 21.7 s
Bas [5]: 0%
Eos [5]: 1%
Fbg [5]: 292.2 mg/dL
Hb [5]: 12.9 g/dL
Ht [5]: 39.9%
Lym [5]: 75.8%
MCH [5]: 20.5 pg
MCHC [5]: 32.4%
MCV [5]: 63.2 fL
Mono [5]: 2.4%
Neu [5]: 20.6%
PT [5]: 16.5 s
Plat [5]: 108.6 x10_4/uL
RBC [5]: 632.4 x10_4/ul
Ret [5]: 7.4%
WBC [5]: 62.3 x10_2/uL
KIDNEY_L [5]: 1 g
KIDNEY_R [5]: 1.1 g
KIDNEY_TOTAL [5]: 2.1 g
LIVER [5]: 9.9 g
A/G [5]: 1.3
ALP [5]: 1366.2 IU/L
ALT [5]: 58.8 IU/L
AST [5]: 87.6 IU/L
BUN [5]: 12.2 mg/dL
CRE [5]: 0.1 mg/dL
Ca [5]: 10.4 mg/dL
Cl [5]: 106 meq/L
DBIL [5]: 0 mg/dL
GLC [5]: 174.4 mg/dL
IP [5]: 9.6 mg/dL
K [5]: 4 meq/L
LDH [5]: 168 IU/L
Na [5]: 141 meq/L
PL [5]: 122.6 mg/dL
RALB [5]: 3 g/dL
TBIL [5]: 0.028 mg/dL
TC [5]: 72.6 mg/dL
TG [5]: 46 mg/dL
TP [5]: 5.4 g/dL
gamma-GTP [5]: 1 IU/L
TERMINAL_BW [6]: 214.8 g
APTT [6]: 21.8 s
Bas [6]: 0%
Eos [6]: 0.6%
Fbg [6]: 411.6 mg/dL
Hb [6]: 13.6 g/dL
Ht [6]: 42.2%
Lym [6]: 71.2%
MCH [6]: 20.7 pg
MCHC [6]: 32.4%
MCV [6]: 64 fL
Mono [6]: 2%
Neu [6]: 25%
PT [6]: 16.1 s
Plat [6]: 109.7 x10_4/uL
RBC [6]: 660.2 x10_4/ul
Ret [6]: 7.1%
WBC [6]: 71.5 x10_2/uL
KIDNEY_L [6]: 0.9 g
KIDNEY_R [6]: 0.9 g
KIDNEY_TOTAL [6]: 1.9 g
LIVER [6]: 9.6 g
A/G [6]: 1.2
ALP [6]: 1714.4 IU/L
ALT [6]: 52 IU/L
AST [6]: 84.2 IU/L
BUN [6]: 10.2 mg/dL
CRE [6]: 0.2 mg/dL
Ca [6]: 10.3 mg/dL
Cl [6]: 107.2 meq/L
DBIL [6]: 0 mg/dL
GLC [6]: 186.8 mg/dL
IP [6]: 8.5 mg/dL
K [6]: 4.2 meq/L
LDH [6]: 190.4 IU/L
Na [6]: 141.8 meq/L
PL [6]: 133.2 mg/dL
RALB [6]: 3 g/dL
TBIL [6]: 0.02 mg/dL
TC [6]: 80.4 mg/dL
TG [6]: 34.8 mg/dL
TP [6]: 5.7 g/dL
gamma-GTP [6]: 1.6 IU/L
TERMINAL_BW [7]: 217.6 g
APTT [7]: 23.3 s
Bas [7]: 0%
Eos [7]: 0.8%
Fbg [7]: 309.4 mg/dL
Hb [7]: 12.7 g/dL
Ht [7]: 39.4%
Lym [7]: 72.8%
MCH [7]: 20.3 pg
MCHC [7]: 32.2%
MCV [7]: 63 fL
Mono [7]: 2.6%
Neu [7]: 23%
PT [7]: 16.1 s
Plat [7]: 109.3 x10_4/uL
RBC [7]: 626.4 x10_4/ul
Ret [7]: 7.6%
WBC [7]: 76 x10_2/uL
KIDNEY_L [7]: 1 g
KIDNEY_R [7]: 1 g
KIDNEY_TOTAL [7]: 2 g
LIVER [7]: 9.5 g
A/G [7]: 1.3
ALP [7]: 1243.2 IU/L
ALT [7]: 42.8 IU/L
AST [7]: 65 IU/L
BUN [7]: 8.6 mg/dL
CRE [7]: 0.1 mg/dL
Ca [7]: 10.3 mg/dL
Cl [7]: 107.2 meq/L
DBIL [7]: 0 mg/dL
GLC [7]: 186 mg/dL
IP [7]: 9.1 mg/dL
K [7]: 4.2 meq/L
LDH [7]: 146.4 IU/L
Na [7]: 141.4 meq/L
PL [7]: 144.8 mg/dL
RALB [7]: 3 g/dL
TBIL [7]: 0.026 mg/dL
TC [7]: 81.4 mg/dL
TG [7]: 45.4 mg/dL
TP [7]: 5.4 g/dL
gamma-GTP [7]: 1.4 IU/L
TERMINAL_BW [8]: 225.6 g
APTT [8]: 20.4 s
Bas [8]: 0%
Eos [8]: 1%
Fbg [8]: 313.6 mg/dL
Hb [8]: 13.4 g/dL
Ht [8]: 41%
Lym [8]: 80%
MCH [8]: 20.5 pg
MCHC [8]: 32.8%
MCV [8]: 62.5 fL
Mono [8]: 2.6%
Neu [8]: 15.6%
PT [8]: 16.3 s
Plat [8]: 106 x10_4/uL
RBC [8]: 656.8 x10_4/ul
Ret [8]: 7.1%
WBC [8]: 76.9 x10_2/uL
KIDNEY_L [8]: 1 g
KIDNEY_R [8]: 1 g
KIDNEY_TOTAL [8]: 2 g
LIVER [8]: 10.5 g
A/G [8]: 1.2
ALP [8]: 1526.6 IU/L
ALT [8]: 50.2 IU/L
AST [8]: 71.4 IU/L
BUN [8]: 14.6 mg/dL
CRE [8]: 0.2 mg/dL
Ca [8]: 10.6 mg/dL
Cl [8]: 105 meq/L
DBIL [8]: 0 mg/dL
GLC [8]: 182.2 mg/dL
IP [8]: 8.2 mg/dL
K [8]: 4.2 meq/L
LDH [8]: 170.6 IU/L
Na [8]: 142.6 meq/L
PL [8]: 163 mg/dL
RALB [8]: 3.1 g/dL
TBIL [8]: 0.004 mg/dL
TC [8]: 89 mg/dL
TG [8]: 120.2 mg/dL
TP [8]: 5.6 g/dL
gamma-GTP [8]: 1.6 IU/L
